These results are taken from ChEMBL document CHEMBL1123640, “Synthesis and antiviral activity of carbocyclic analogues of xylofuranosides of 2-amino-6-substituted-purines and 2-amino-6-substituted-8-azapurines” (1987).

≈ marks a conversion by molar mass, not a printed value.

Type in all cases: functional
For assay [1], the system named is Human alphaherpesvirus 2. Description: Minimum inhibitory concentration required to inhibit Herpes simplex virus type 2 (strain MS) induced cytopathogenic effects by 50%. (experiment 1). The note with it: Human alphaherpesvirus 2, MS.
The test system of assay [2] is Human alphaherpesvirus 2. In words: The compound was tested in vitro for definite and significant anti viral activity against Herpes simplex virus type 2 (strain MS) (experiment 2); value indicates definite and significant antiviral activity.
Assay [3] deals with Human alphaherpesvirus 1. Description: The compound was tested in vitro for definite and significant anti viral activity against Herpes simplex virus type 1 (strain 377) (experiment 1); value indicates definite and significant antiviral activity.
The subject of assay [4] is Human alphaherpesvirus 2. Description: Minimum inhibitory concentration required to inhibit Herpes simplex virus type 2 (strain MS) induced cytopathogenic effects by 50%. (experiment 2). The note with it: Human alphaherpesvirus 2, MS. For orientation: Protection from cytopathic effect is a common read-out in antiviral testing.
The test system of assay [5] is Human alphaherpesvirus 1. Description: Minimum inhibitory concentration required to inhibit Herpes simplex virus type 1 (strain 377) induced cytopathogenic effects by 50%. (experiment 1).
In the next assay the test system is P388. In words: Tested for inhibitory activity against P-388 leukemia cells. The note with it: Mus musculus, read-out: ED50 (the source's name).
Assay [6] has as its system Human alphaherpesvirus 1. In words: Minimum inhibitory concentration required to inhibit Herpes simplex virus type 1 (strain 377) induced cytopathogenic effects by 50%. (experiment 2).
For assay [7], the system named is Human alphaherpesvirus 2. Description: The compound was tested in vitro for definite and significant anti viral activity against Herpes simplex virus type 2 (strain MS) (experiment 1); value indicates definite and significant antiviral activity.
Assay [8] relates to Human alphaherpesvirus 1. Description: The compound was tested in vitro for definite and significant anti viral activity against Herpes simplex virus type 1 (strain 377) (experiment 2); value indicates definite and significant antiviral activity.
Assay [9] is filed under the species Homo sapiens. Description: Antiviral activity against Varicella-Zoster virus (VV) in human foreskin cell cultures in virus plaque reduction assay at 3.2 uM. (In a plaque reduction assay, fewer plaques than in the control indicate reduced infectivity or spread.)
For assay [10], the species on record is Homo sapiens. Description: Cytotoxicity was determined at 320 uM.
The species entered for assay [11] is Homo sapiens. Description: Antiviral activity against Varicella-Zoster virus (VV) in human foreskin cell cultures in virus plaque reduction assay at 100 uM.
Assay [12] is filed under the species Homo sapiens. Description: Antiviral activity against Varicella-Zoster virus (VV) in human foreskin cell cultures in virus plaque reduction assay at 1000 uM.
For assay [13], the species on record is Homo sapiens. Description: Cytotoxicity was determined at 1000 uM.
The species named for assay [14] is Homo sapiens. In words: Cytotoxicity was determined at 32 uM.
The species entered for assay [15] is Homo sapiens. Description: Cytotoxicity was determined at 100 uM.
The species named for assay [16] is Homo sapiens. In words: Antiviral activity against Varicella-Zoster virus (VV) in human foreskin cell cultures in virus plaque reduction assay at 320 uM.
The species entered for assay [17] is Homo sapiens. In words: Antiviral activity against Varicella-Zoster virus (VV) in human foreskin cell cultures in virus plaque reduction assay at 32 uM.
Assay [18] is filed under the species Homo sapiens. Description: Antiviral activity against Varicella-Zoster virus (VV) in human foreskin cell cultures in virus plaque reduction assay at 10 uM.
Assay [19] relates to Human alphaherpesvirus 1. In words: Minimum inhibitory concentration required to inhibit Herpes simplex virus type 1 (strain 377) induced cytopathogenic effects by 50%.
The test system of assay [20] is Human alphaherpesvirus 1. In words: The compound was tested in vitro for anti viral activity against Herpes simplex virus type 1 (strain 377).
For assay [21], the species on record is Homo sapiens. In words: Antiviral activity against Varicella-Zoster virus (VV) in human foreskin cell cultures in virus plaque reduction assay at 1 uM.

As to `Nc1nc(O)c2nnn(C3CC(CO)C(O)C3O)c2n1` (stereo unspecified), the MIC50 in the assay on Human alphaherpesvirus 2 [1] came to 92.2 µg/mL (≈ 327 µM); against Human alphaherpesvirus 2 [4], 240 µg/mL (≈ 852 µM); in the assay on Human alphaherpesvirus 1 [5] it was 60.8 µg/mL (≈ 215 µM); in the assay on Human alphaherpesvirus 1 [6] it was 93.1 µg/mL (≈ 330 µM). Moreover, the Virus rating with Human alphaherpesvirus 2 [2] is 1.1; in the assay with Human alphaherpesvirus 1 [3] it was 2.4; with Human alphaherpesvirus 2 [7] it was 1.3; with Human alphaherpesvirus 1 [8] it was 2.5. For the same compound, the EC50 in the assay with P388 came out at 1.6 µM.
Consider `Nc1nc2c(ncn2COC(CO)CO)c(=O)[nH]1` [GANCICLOVIR], for which the Reduction in the assay filed under Homo sapiens [9] is 24%; in the assay listed under Homo sapiens [11], 82%; in the assay filed under Homo sapiens [12] it was 97%; in the assay filed under Homo sapiens [13] it was 0; in the assay listed under Homo sapiens [16], 97%; in the assay listed under Homo sapiens [17] it was 56%. In addition, the Reduction in the assay listed under Homo sapiens [18] came out at 35%. Also, the Cytotoxicity in the assay filed under Homo sapiens [10], in the assay filed under Homo sapiens [14] and in the assay listed under Homo sapiens [15] was 0 each time.
In the assay on Human alphaherpesvirus 1 [19], `Nc1nc(Cl)c2nnn(C3CC(CO)C(O)C3O)c2n1` (stereo unspecified) came in with an MIC50 of 100 µg/mL (≈ 333 µM). Also, in the assay on Human alphaherpesvirus 1 [20], the Virus rating is on record as 0.6. The EC50 with P388 is 50 µM.
The corresponding values for `Nc1nc(N)c2ncn(C3CC(CO)C(O)C3O)c2n1` (stereo unspecified) are 85 µg/mL (≈ 303 µM), 2.7 and 39 µM.
Take `Nc1nc2c(ncn2COCCO)c(=O)[nH]1` [ACYCLOVIR]: the Reduction in the assay listed under Homo sapiens [9] was found to be 32%; in the assay filed under Homo sapiens [11] it was 94%; in the assay listed under Homo sapiens [12], 100%; in the assay listed under Homo sapiens [16], 100%; in the assay listed under Homo sapiens [17] it was 79%; in the assay listed under Homo sapiens [21] it was 35%. Also, the Reduction in the assay listed under Homo sapiens [18] is 41%. The Cytotoxicity in the assay listed under Homo sapiens [10], in the assay listed under Homo sapiens [13], in the assay listed under Homo sapiens [14] and in the assay filed under Homo sapiens [15] was 0 in each case.
